Measured values reported in patent US20120245137A1 (Zalicus Pharmaceuticals Ltd., priority 2009, published 2012).

The molecules below were run against N-type calcium channel subunits (α1B, α2δ, and β3a) (Homo sapiens, UniProt Q00975) (assay: Block of Cav2.2 channel, whole cell voltage clamp, manual and PatchXpress). Settings: Table 5; table follows Assay Example 3 (whole cell voltage clamp / PatchXpress); assay not given.
Chain of N-type calcium channel subunits (α1B, α2δ, and β3a) (Q00975 whole entry): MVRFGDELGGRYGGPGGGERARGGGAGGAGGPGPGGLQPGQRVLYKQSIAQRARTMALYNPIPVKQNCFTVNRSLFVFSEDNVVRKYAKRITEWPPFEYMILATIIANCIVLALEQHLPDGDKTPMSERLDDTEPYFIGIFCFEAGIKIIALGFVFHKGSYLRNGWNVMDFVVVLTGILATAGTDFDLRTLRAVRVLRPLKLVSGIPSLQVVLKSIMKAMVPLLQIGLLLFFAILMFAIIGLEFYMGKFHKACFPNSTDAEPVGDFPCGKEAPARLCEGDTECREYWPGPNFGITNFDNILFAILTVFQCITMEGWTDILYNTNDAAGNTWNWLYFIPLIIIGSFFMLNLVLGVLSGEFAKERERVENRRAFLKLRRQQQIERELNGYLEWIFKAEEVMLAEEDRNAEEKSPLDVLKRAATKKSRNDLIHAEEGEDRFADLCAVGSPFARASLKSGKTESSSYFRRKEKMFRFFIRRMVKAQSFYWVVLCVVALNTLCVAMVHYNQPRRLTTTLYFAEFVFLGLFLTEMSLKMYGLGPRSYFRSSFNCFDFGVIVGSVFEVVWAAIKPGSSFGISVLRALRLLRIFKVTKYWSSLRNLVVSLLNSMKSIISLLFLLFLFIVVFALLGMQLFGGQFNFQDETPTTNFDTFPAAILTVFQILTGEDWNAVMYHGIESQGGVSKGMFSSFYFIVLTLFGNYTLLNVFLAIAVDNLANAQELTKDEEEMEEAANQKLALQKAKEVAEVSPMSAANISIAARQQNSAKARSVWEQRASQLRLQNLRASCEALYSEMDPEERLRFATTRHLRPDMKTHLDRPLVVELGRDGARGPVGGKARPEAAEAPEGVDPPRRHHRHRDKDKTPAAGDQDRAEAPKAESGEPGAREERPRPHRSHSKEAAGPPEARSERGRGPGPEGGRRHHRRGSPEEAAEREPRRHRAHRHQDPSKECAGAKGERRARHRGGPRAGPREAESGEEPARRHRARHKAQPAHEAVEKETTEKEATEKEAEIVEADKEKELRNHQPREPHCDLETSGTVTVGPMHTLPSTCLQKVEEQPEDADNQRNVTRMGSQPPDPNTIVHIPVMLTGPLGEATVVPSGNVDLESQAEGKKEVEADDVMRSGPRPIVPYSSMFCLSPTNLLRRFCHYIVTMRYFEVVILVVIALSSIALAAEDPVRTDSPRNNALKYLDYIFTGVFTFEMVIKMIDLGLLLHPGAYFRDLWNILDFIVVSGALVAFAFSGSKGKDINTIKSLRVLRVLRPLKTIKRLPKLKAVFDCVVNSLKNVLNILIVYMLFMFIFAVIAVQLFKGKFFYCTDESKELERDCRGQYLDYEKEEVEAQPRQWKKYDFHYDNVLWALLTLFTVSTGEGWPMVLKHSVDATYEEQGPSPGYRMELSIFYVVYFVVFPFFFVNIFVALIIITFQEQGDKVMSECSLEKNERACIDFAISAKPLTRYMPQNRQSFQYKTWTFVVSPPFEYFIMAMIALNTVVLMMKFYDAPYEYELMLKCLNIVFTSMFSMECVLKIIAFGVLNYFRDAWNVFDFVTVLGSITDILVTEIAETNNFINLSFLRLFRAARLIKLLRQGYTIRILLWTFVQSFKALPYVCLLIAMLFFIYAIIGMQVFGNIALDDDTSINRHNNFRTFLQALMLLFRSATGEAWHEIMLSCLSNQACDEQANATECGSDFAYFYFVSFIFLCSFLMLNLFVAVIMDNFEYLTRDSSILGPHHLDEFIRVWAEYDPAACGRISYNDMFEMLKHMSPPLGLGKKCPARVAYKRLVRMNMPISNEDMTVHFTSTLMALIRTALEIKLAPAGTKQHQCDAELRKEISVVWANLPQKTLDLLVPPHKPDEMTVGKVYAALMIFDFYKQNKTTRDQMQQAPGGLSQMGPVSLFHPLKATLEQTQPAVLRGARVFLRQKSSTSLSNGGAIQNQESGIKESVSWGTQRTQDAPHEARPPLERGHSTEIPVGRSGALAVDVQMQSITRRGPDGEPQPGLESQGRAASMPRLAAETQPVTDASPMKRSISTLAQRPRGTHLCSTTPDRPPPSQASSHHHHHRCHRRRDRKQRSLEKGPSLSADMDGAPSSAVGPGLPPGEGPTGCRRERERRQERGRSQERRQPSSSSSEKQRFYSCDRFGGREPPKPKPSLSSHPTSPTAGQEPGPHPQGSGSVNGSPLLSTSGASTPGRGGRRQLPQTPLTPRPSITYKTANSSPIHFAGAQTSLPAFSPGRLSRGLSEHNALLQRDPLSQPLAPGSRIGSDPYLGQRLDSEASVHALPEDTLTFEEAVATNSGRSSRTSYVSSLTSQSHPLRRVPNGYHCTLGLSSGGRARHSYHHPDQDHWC
Chain of N-type calcium channel subunits (α1B, α2δ, and β3a) (P54289 25-1103 partner): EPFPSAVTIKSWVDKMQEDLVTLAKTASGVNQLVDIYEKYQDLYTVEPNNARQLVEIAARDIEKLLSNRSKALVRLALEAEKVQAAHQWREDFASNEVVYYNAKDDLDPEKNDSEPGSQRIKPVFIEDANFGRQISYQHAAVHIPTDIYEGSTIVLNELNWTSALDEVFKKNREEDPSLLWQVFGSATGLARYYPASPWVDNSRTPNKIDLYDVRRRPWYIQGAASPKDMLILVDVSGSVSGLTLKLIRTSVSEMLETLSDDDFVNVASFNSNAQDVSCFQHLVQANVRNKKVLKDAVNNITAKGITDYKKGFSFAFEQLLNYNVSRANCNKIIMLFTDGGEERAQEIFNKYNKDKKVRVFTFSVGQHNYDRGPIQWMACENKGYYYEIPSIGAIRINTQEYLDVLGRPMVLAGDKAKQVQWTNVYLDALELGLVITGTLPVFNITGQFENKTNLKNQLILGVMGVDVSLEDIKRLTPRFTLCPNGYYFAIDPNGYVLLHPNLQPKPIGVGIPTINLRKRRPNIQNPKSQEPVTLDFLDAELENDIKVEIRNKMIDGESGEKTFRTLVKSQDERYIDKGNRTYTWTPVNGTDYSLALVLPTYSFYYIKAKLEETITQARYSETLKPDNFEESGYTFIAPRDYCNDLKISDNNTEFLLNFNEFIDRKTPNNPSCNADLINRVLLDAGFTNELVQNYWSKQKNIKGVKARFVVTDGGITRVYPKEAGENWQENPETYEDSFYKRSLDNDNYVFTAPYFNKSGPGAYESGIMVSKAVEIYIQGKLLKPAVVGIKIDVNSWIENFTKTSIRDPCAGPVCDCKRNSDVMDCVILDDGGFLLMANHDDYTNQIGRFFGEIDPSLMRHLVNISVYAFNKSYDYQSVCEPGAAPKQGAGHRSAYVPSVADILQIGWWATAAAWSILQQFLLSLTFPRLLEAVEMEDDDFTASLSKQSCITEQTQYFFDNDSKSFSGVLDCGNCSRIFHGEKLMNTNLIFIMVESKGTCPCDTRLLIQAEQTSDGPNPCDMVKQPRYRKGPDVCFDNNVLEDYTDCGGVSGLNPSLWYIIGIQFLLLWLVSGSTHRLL
Chain of N-type calcium channel subunits (α1B, α2δ, and β3a) (P54284 whole entry partner): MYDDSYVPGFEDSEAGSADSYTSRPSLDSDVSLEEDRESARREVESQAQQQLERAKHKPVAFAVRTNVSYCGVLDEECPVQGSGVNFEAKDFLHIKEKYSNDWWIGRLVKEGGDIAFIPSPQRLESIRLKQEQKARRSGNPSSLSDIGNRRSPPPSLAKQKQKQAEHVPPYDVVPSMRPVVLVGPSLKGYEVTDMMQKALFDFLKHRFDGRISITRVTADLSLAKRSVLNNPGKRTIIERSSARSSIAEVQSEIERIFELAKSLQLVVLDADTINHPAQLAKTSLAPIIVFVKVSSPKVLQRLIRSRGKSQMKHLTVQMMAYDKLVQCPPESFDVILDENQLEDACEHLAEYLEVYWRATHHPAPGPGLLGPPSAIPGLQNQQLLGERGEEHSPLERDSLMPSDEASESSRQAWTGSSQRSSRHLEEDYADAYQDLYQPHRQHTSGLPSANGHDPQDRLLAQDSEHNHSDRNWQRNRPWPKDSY
Type: cell-based
Method: Cells are grown either on poly-D-lysine coated coverglass (manual EP) or in TIS culture plates (PatchXpress). For the PatchExpress, cells are released from the flask using trypsin. In both cases, the […] solution is (in mM): 130 […], 10 EGTA, 10 HEPES, 2 MgCl2, 3 MgATP, pH 7.3 with CsOH.
Microelectrodes are fabricated from borosilicate glass and fire-polished. […] The reference electrode is a silver-silver chloride pellet. Voltages are not corrected for the liquid junction potential between the internal and external solutions and leak is subtracted using the P/n procedure. Solutions are applied to cells by bath perfusion via gravity. The experimental chamber volume is—0.2 mL. and the perfusion rate is 0.5-2 mL/min. Flow of suction through the chamber is maintained at all times. Measurement of current amplitudes is performed with […] software (HEKA Elektronik).
PatchXpress (Molecular Devices) is a 16-well whole-cell automated patch clamp device that operates asynchronously with fully integrated fluidics. […] Capacitance and series resistance compensation is automated. No correction for liquid junction potentials is employed. Leak is subtracted using the P/n procedure. Compounds are added to cells with a pipettor from a 96-well compound plate. Voltage protocols and the recording of membrane currents are performed using the PatchXpress software/hardware system. Current amplitudes are calculated with DataXpress software.
In both manual and automated patch clamp, cells are voltage clamped at […] or −90 m V and 50 ms pulses to +20 mV are applied every 15 sec (0.067 Hz). Compounds are added in escalating doses to measure % inhibition. Percent inhibition is calculated from the ratio of the curerent amplitude in the presence and absence of compound. When multiple doses are achieved per cell, IC50 values are calculated.
Molecule “6-(trifluoromethyl)-N-((1S,4S)-4- (3-(trifluoromethyl)phenylsulfonyl) cyclohexyl)nicotinamide [Compound 199]” has an IC50 of 1250 nM.
For `O=C(CCC(F)(F)F)NC1CCC(S(=O)(=O)c2cccc(C(F)(F)F)c2)CC1` (stereo not shown) [Compound 12, 4,4,4-trifluoro-N-(4-(3-(trifluoromethyl)phenylsulfonyl)cyclohexyl)butanamide], the IC50 was 1940 nM.
In the case of `O=C(NC[C@H]1CC[C@@H](S(=O)(=O)c2cccc(C(F)(F)F)c2)CC1)c1cc(C(F)(F)F)n[nH]1` [Compound 34, 3-(trifluoromethyl)-N-(((1S,4S)-4-(3-(trifluoromethyl)phenylsulfonyl)cyclohexyl)methyl)-1H-pyrazole-5-carboxamide], the IC50 is reported as 640 nM.
`O=C(N[C@H]1CC[C@@H](S(=O)(=O)c2cccc(C(F)(F)F)c2)CC1)c1cc(F)cc(Cl)c1` [Compound 40, 3-chloro-5-fluoro-N-((1S,4S)-4-(3-(trifluoromethyl)phenylsulfonyl)cyclohexyl)benzamide] was tested, and the IC50 was 170 nM.
With `O=C(N[C@H]1CC[C@@H](S(=O)(=O)c2cccc(C(F)(F)F)c2)CC1)C1CCOCC1` [Compound 44, N-((1S,4S)-4-(3-(trifluoromethyl)phenylsulfonyl)cyclohexyl)tetrahydro-2H-pyran-4-carboxamide] the IC50 was 5930 nM.
For `O=C(CN[C@H]1CC[C@@H](S(=O)(=O)c2cccc(C(F)(F)F)c2)CC1)N1CCOCC1` [Compound 53, 1-morpholino-2-((1S,4S)-4-(3-(trifluoromethyl)phenylsulfonyl)cyclohexylamino)ethanone], the IC50 was 4720 nM.
`O=C(N[C@H]1CC[C@H](S(=O)(=O)c2cccc(C(F)(F)F)c2)CC1)C1CCOCC1` [Compound 63, N-((1R,4R)-4-(3-(trifluoromethyl)phenylsulfonyl)cyclohexyl)tetrahydro-2H-pyran-4-carboxamide] gave an IC50 of 9980 nM.
Molecule `CCN(CC)C(=O)CN[C@H]1CC[C@H](S(=O)(=O)c2cccc(C(F)(F)F)c2)CC1` [Compound 71, N,N-diethyl-2-((1R,4R)-4-(3-(trifluoromethyl)phenylsulfonyl)cyclohexylamino)acetamide] has an IC50 of 5870 nM.
With `CC(C)NC(=O)CN[C@H]1CC[C@H](S(=O)(=O)c2cccc(C(F)(F)F)c2)CC1` [Compound 72, N-isopropyl-2-((1R,4R)-4-(3-(trifluoromethyl)phenylsulfonyl)cyclohexylamino)acetamide] the IC50 was 8580 nM.
Work on `O=C(CN[C@H]1CC[C@H](S(=O)(=O)c2cccc(C(F)(F)F)c2)CC1)Nc1ccccn1` [Compound 77, N-(pyridin-2-yl)-2-((1R,4R)-4-(3-(trifluoromethyl)phenylsulfonyl)cyclohexylamino)acetamide] yielded an IC50 of 740 nM.
`CC1(CNC(=O)c2nc3ccc(C(F)(F)F)cc3[nH]2)CCC(F)(S(=O)(=O)c2cccc(C(F)(F)F)c2)CC1` (stereo not shown) [Compound 156, N-((4-fluoro-1-methyl-4-(3-(trifluoromethyl)phenylsulfonyl)cyclohexyl)methyl)-6-(trifluoromethyl)-1H-benzo[d]imidazole-2-carboxamide] gave an IC50 of 1230 nM.
With `COc1cc(C(=O)NCC2(C)CCC(F)(S(=O)(=O)c3cccc(C(F)(F)F)c3)CC2)ccn1` (stereo not shown) [Compound 157, N-((4-fluoro-1-methyl-4-(3-(trifluoromethyl)phenylsulfonyl)cyclohexyl)methyl)-2-methoxyisonicotinamide] the IC50 was 1030 nM.
`CC(C)(C)NCC(=O)N[C@H]1CC[C@H](CS(=O)(=O)c2cccc(C(F)(F)F)c2)CC1` [Compound 160, 2-(tert-butylamino)-N-((1R,4R)-4-((3-(trifluoromethyl)phenylsulfonyl)methyl)cyclohexyl)acetamide] showed an IC50 of 1990 nM.
In the case of `CN(CC(=O)N[C@H]1CC[C@H](CS(=O)(=O)c2cccc(C(F)(F)F)c2)CC1)C(C)(C)C` [Compound 161, 2-(tert-butyl(methyl)amino)-N-((1R,4R)-4-((3-(trifluoromethyl)phenylsulfonyl)methyl)cyclohexyl)acetamide], the IC50 is reported as 2450 nM.
`O=C(CN1CCCCC1)N[C@H]1CC[C@H](CS(=O)(=O)c2cccc(C(F)(F)F)c2)CC1` [Compound 164, 2-(piperidin-1-yl)-N-((1R,4R)-4-((3-(trifluoromethyl)phenylsulfonyl)methyl)cyclohexyl)acetamide] was tested, and the IC50 was 1810 nM.
In the case of `O=C(N[C@H]1CC[C@H](CS(=O)(=O)c2cccc(C(F)(F)F)c2)CC1)c1cnccc1C(F)(F)F` [Compound 169, 4-(trifluoromethyl)-N-((1R,4R)-4-((3-(trifluoromethyl)phenylsulfonyl)methyl)cyclohexyl)nicotinamide], the IC50 is reported as 7110 nM.
For `O=C(N[C@H]1CC[C@H](CS(=O)(=O)c2cccc(C(F)(F)F)c2)CC1)c1nsc(Cl)c1Cl` [Compound 170, 4,5-dichloro-N-((1R,4R)-4-((3-(trifluoromethyl)phenylsulfonyl)methyl)cyclohexyl)isothiazole-3-carboxamide], the IC50 was 4920 nM.
`O=C(N[C@H]1CC[C@H](CS(=O)(=O)c2cccc(C(F)(F)F)c2)CC1)c1ccc(OCC(F)(F)F)nc1` [Compound 171, 6-(2,2,2-trifluoroethoxy)-N-((1R,4R)-4-((3-(trifluoromethyl)phenylsulfonyl)methyl)cyclohexyl)nicotinamide] was tested, and the IC50 was 480 nM.
Work on `O=C(N[C@H]1CC[C@H](CS(=O)(=O)c2cccc(C(F)(F)F)c2)CC1)c1ccnc(C(F)(F)F)c1` [Compound 176, 2-(trifluoromethyl)-N-((1R,4R)-4-((3-(trifluoromethyl)phenylsulfonyl)methyl)cyclohexyl)isonicotinamide] yielded an IC50 of 9440 nM.
In the case of `O=C(N[C@H]1CC[C@H](CS(=O)(=O)c2cccc(C(F)(F)F)c2)CC1)c1cncc(C(F)(F)F)c1` [Compound 177, 5-(trifluoromethyl)-N-((1R,4R)-4-((3-(trifluoromethyl)phenylsulfonyl)tmehyl)cyclohexyl)nicotinamide], the IC50 is reported as 2060 nM.
Work on `O=C(N[C@H]1CC[C@H](S(=O)(=O)c2cccc(C(F)(F)F)c2)CC1)c1ccnn1CC(F)(F)F` [Compound 180, 1-(2,2,2-trifluoroethyl)-N-((1R,4R)-4-(3-(trifluoromethyl)phenylsulfonyl)cyclohexyl)-1H-pyrazole-5-carboxamide] yielded an IC50 of 3350 nM.
Work on `O=C(N[C@H]1CC[C@H](S(=O)(=O)c2cccc(C(F)(F)F)c2)CC1)c1ccnc(Cl)c1` [Compound 181, 2-chloro-N-((1R,4R)-4-(3-(trifluoromethyl)phenylsulfonyl)cyclohexyl)isonicotinamide] yielded an IC50 of 1830 nM.
`O=C(N[C@H]1CC[C@H](S(=O)(=O)c2cccc(C(F)(F)F)c2)CC1)c1ccc(OCC(F)(F)F)nc1` [Compound 184] gave an IC50 of 3110 nM.
With `Cc1cc(C(=O)N[C@H]2CC[C@H](S(=O)(=O)c3cccc(C(F)(F)F)c3)CC2)c(C(F)(F)F)o1` [Compound 185, 5-methyl-2-(trifluoromethyl)-N-((1R,4R)-4-(3-(trifluoromethyl)phenylsulfonyl)cyclohexyl)furan-3-carboxamide] the IC50 was 1630 nM.
`O=C(N[C@H]1CC[C@H](S(=O)(=O)c2cccc(C(F)(F)F)c2)CC1)c1ccc(C(F)(F)F)nc1` [Compound 186, 6-(trifluoromethyl)-N-((1R,4R)-4-(3-(trifluoromethyl)phenylsulfonyl)cyclohexyl)nicotinamide] gave an IC50 of 5840 nM.
With `O=C(N[C@H]1CC[C@H](S(=O)(=O)c2cccc(C(F)(F)F)c2)CC1)c1ccnc(C(F)(F)F)c1` [Compound 189, 2-(trifluoromethyl)-N-((1R,4R)-4-(3-(trifluoromethyl)phenylsulfonyl)cyclohexyl)isonicotinamide] the IC50 was 1540 nM.
For `CC(C)(C)S(=O)(=O)c1ccsc1C(=O)N[C@H]1CC[C@H](S(=O)(=O)c2cccc(C(F)(F)F)c2)CC1` [Compound 191, 3-(tert-butylsulfonyl)-N-((1R,4R)-4-(3-(trifluoromethyl)phenylsulfonyl)cyclohexyl)thiophene-2-carboxamide], the IC50 was 1220 nM.
Molecule `O=C(N[C@H]1CC[C@@H](S(=O)(=O)c2cccc(C(F)(F)F)c2)CC1)c1ccnc(Cl)c1` [Compound 194, 2-chloro-N-((1S,4S)-4-(3-(trifluoromethyl)phenylsulfonyl)cyclohexyl)isonicotinamide] has an IC50 of 1330 nM.
In the case of `O=C(N[C@H]1CC[C@@H](S(=O)(=O)c2cccc(C(F)(F)F)c2)CC1)c1cnccc1C(F)(F)F` [Compound 195, 4-(trifluoromethyl)-N-((1S,4S)-4-(3-(trifluoromethyl)phenylsulfonyl)cyclohexyl)nicotinamide], the IC50 is reported as 3150 nM.
With `O=C(N[C@H]1CC[C@@H](S(=O)(=O)c2cccc(C(F)(F)F)c2)CC1)c1ccnc(F)c1` [Compound 201, 2-fluoro-N-((1S,4S)-4-(3-(trifluoromethyl)phenylsulfonyl)cyclohexyl)isonicotinamide] the IC50 was 1860 nM.
`O=C(N[C@H]1CC[C@@H](S(=O)(=O)c2cccc(C(F)(F)F)c2)CC1)c1cnc(C(F)(F)F)nc1` [Compound 205, 2-(trifluoromethyl)-N-((1S,4S)-4-(3-(trifluoromethyl)phenylsulfonyl)cyclohexyl)pyrimidine-5-carboxamide] showed an IC50 of 1700 nM.
